Test results published in US9006261B2, “Fluorescent perylene derivatives for direct detection of heparin” (priority 2009, dated 2015).

Test: Fluorescence response to Dalteparin sodium in buffer, serum and plasma
Format: binding
Details: fluorescence of perylene diimide derivative/LMWH mixture
Description: The response of the perylene diimide derivative to heparin was additionally studied using Dalteparin sodium (0.4-0.8 IU/mL), a clinically important LMWH preparation with a mean molecular weight of 5000 g/mol. Fluorescence was recorded with a portable fluorometer, equipped with a 485 nm excitation filter and a 665 nm cutoff emission filter. The latter filter offered good signal-to-background ratio since serum/plasma autofluorescence is very low above 665 nm. The fluorescence of the perylene diimide derivative decreased approximately linearly (FIG. 4c) with increasing LMWH concentration, in buffered solution. The binding ration was calculated to be one perylene diimide derivative/2 disaccharides of heparin. Solutions containing 20 vol % serum or plasma required an only slightly larger (about 1.1-fold) LMWH concentration to trigger the same relative fluorescence decrease as observed in buffered solution.

## protamine
  reversibility of LMWH binding on addition of protamine: fluorescence was restored
